Results taken from ChEMBL document CHEMBL1144066, “Aurantosides D, E, and F: new antifungal tetramic acid glycosides from the marine sponge Siliquariaspongia japonica” (J Nat Prod, 1999).
In brackets after ≈: the same amount, converted by molar mass. Activity calls are given as the source filed them. No cut-off for these calls is given here.

Experiments:
Candida albicans [1] = test: Antifungal activity against Candida albicans; assay type: functional
Candida albicans [2] = test: Antifungal activity against Candida albicans at 2 ug/disk; assay type: functional; details: for zone of inhibition at 2 µg/disc: read-out: IZ
Aspergillus fumigatus [3] = test: Antifungal activity against Aspergillus fumigatus at 2 ug/disk; assay type: functional; details: read-out: IZ
P388 = test: Cytotoxicity against mouse P388 cells; assay type: functional, cell-based
Aspergillus fumigatus [4] = test: Antifungal activity against Aspergillus fumigatus; assay type: functional

Row | SMILES | Activity (Candida albicans [1]) | Activity (Candida albicans [2]) | MIC (Candida albicans [1]) | zone of inhibition at 2 µg/disc (Aspergillus fumigatus [3]) | zone of inhibition at 2 µg/disc (Candida albicans [2]) | IC50 (P388) | MIC (Aspergillus fumigatus [4])
1 | CO[C@@H]1[C@H](O[C@@H]2CO[C@@H](O[C@@H]3[C@@H](O)[C@H](O)CO[C@H]3N3C(=O)/C(=C(O)/C=C/C=C/C=C/C=C/C=C(Cl)/C=C/C=C/C=C(/C)Cl)C(=O)[C@@H]3CC(N)=O)[C@@H](O)[C@@H]2O)O[C@H](C)[C@H]1O | inactive | inactive |  |  |  |  | 
2 | CO[C@@H]1[C@H](O[C@@H]2CO[C@@H](O[C@@H]3[C@@H](O)[C@H](O)CO[C@H]3N3C(=O)/C(=C(O)/C=C/C=C/C=C/C=C/C=C(Cl)/C=C/C=C(/C)Cl)C(=O)[C@@H]3CC(N)=O)[C@@H](O)[C@@H]2O)O[C@H](C)[C@H]1O [AURANTOSIDE E] |  |  | 0.16 µg/mL (≈ 0.19 µM) | 13.6 mm | 9.7 mm | 0.2 µg/mL (≈ 0.237 µM) | 0.04 µg/mL (≈ 0.0474 µM)
3 | C\C(Cl)=C/C(Cl)=C/C=C/C=C/C=C/C=C/C(O)=C1\C(=O)[C@H](CC(N)=O)N([C@@H]2OC[C@@H](O)[C@H](O)[C@H]2O[C@@H]2OC[C@@H](O[C@@H]3O[C@H](C)[C@@H](O)[C@@H]3O)[C@@H](O)[C@@H]2O)C1=O [AURANTOSIDE B] |  |  | 0.63 µg/mL (≈ 0.784 µM) | 17.2 mm | 11.8 mm | > 5 µg/mL | 0.16 µg/mL (≈ 0.199 µM)
4 | CO[C@@H]1[C@H](O[C@@H]2CO[C@@H](O[C@@H]3[C@@H](O)[C@H](O)CO[C@H]3N3C(=O)/C(=C(O)/C=C/C=C/C=C/C=C/C=C(Cl)/C=C(\C)Cl)C(=O)[C@@H]3CC(N)=O)[C@@H](O)[C@@H]2O)O[C@H](C)[C@H]1O [AURANTOSIDE A] |  |  | 1.25 µg/mL (≈ 1.53 µM) | 18 mm | 11.3 mm | > 5 µg/mL | 0.16 µg/mL (≈ 0.196 µM)
5 | C/C(Cl)=C/C=C/C(Cl)=C/C=C/C=C/C=C/C=C/C(O)=C1\C(=O)[C@H](CC(N)=O)N([C@@H]2OC[C@@H](O)[C@H](O)[C@H]2O[C@@H]2OC[C@@H](O[C@@H]3O[C@H](C)[C@@H](O)[C@@H]3O)[C@@H](O)[C@@H]2O)C1=O [AURANTOSIDE D] |  |  |  | 11 mm | 9.5 mm | 0.2 µg/mL (≈ 0.241 µM) | 
